According to ChEMBL document CHEMBL1201862, “PubChem BioAssay data set” (2004):
Activity calls are given as the source filed them.

How the values were obtained:
[1] = target: T1, Mannose-6-phosphate isomerase (Homo sapiens, UniProt P34949); experiment: MPI inhibition at elevated mannose 6-phosphate – biochemical, fluorescence intensity, high mannose 6-phosphate, primary screen (AID 1220)
T1 sequence (P34949 whole entry): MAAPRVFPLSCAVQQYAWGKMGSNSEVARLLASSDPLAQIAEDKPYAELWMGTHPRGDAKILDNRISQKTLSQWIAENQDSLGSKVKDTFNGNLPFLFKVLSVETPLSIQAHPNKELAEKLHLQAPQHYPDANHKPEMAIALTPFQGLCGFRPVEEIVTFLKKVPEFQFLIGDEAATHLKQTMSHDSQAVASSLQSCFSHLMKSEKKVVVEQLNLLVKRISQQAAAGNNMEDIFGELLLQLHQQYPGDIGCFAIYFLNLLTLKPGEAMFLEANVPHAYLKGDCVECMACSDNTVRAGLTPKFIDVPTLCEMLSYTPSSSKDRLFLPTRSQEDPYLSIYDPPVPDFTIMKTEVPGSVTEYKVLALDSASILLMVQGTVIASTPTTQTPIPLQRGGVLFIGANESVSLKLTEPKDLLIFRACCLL

[2] = THP-1 cell cytotoxicity, dose response, cytotoxicity control for non-replicating M. tuberculosis project (AID 489025); type: functional
[3] = cells; type: functional
[4] = target: Kallikrein-7 (Homo sapiens, UniProt P49862); experiment: Fluorescence Intensity-based biochemical primary high throughput dose response assay to identify activators of kallikrein-7 (K7) zymogen.
[5] = target: T2, Heat shock factor protein 1 (Mus musculus, UniProt P38532); experiment: decrease of HSF1-responsive luciferase luminescence – cell-based, NIH3T3, dose retest, confirmation (AID 2382); type: functional;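 note: NIH3T3 fibroblasts with HSF1-driven luciferase reporter stressed by proteasome inhibitor MG132; luminescence from HSF1-driven luciferase expression after 8 hours of MG132 stress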
T2 sequence (P38532 whole entry): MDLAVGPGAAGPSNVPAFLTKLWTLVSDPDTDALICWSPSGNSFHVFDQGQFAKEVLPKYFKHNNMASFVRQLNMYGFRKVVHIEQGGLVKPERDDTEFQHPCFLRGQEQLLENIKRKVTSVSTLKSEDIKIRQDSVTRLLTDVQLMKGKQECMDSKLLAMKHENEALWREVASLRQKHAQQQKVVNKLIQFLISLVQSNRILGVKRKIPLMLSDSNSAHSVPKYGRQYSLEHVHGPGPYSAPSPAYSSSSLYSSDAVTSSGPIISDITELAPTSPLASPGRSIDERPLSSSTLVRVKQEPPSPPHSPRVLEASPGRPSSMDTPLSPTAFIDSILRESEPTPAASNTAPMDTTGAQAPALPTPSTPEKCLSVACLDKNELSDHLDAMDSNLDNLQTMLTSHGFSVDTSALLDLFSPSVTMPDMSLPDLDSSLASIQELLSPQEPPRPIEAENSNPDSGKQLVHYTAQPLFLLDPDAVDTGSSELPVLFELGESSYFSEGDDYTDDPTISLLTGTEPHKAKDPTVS

[6] = tested on: INS1; experiment: INS-1E survival protection against cytokine death – cell-based, luminescence, retest, dose response (AID 449756); type: functional; settings: Rattus norvegicus;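 note: cell death triggered by IL-1 beta plus TNF-alpha plus IFN-gamma mixture; protective hits raise ATP signal compared with cytokine alone wells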
[7] = target: Induced myeloid leukemia cell differentiation protein Mcl-1 (Homo sapiens, UniProt Q07820); type: functional
[8] = tested on: BJ; experiment: BJ-TERT fibroblast viability loss – cell-based, RAS-independent, luminescence, dose response (AID 1933); type: functional; settings: Homo sapiens
[9] = tested on: BJ; experiment: cells; type: functional, cell-based; settings: Homo sapiens
[10] = tested on: BJ; experiment: BJ-TERT-LT-ST fibroblast viability loss – cell-based, RAS-independent, luminescence, dose response (AID 1935); type: functional; settings: Homo sapiens;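 note: BJ fibroblasts immortalized with TERT plus LT and ST oncogenes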
[11] = DRD fibroblast viability loss – cell-based, non-viral oncogenic, luminescence, dose response (AID 1934); type: functional; settings: Homo sapiens
[12] = target: Genome polyprotein (dengue virus type 2, UniProt P29990); experiment: flavivirus cap methylation enzyme inhibition – biochemical, confirmation dose response, primary screen (AID 588689); type: functional
[13] = target: T3, Caspase-3 (Homo sapiens, UniProt P42574); type: functional;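 note: Dose-response selectivity test against caspase-3 for candidate inhibitors of sentrin-specific proteases (SENPs)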
T3 sequence (P42574 whole entry): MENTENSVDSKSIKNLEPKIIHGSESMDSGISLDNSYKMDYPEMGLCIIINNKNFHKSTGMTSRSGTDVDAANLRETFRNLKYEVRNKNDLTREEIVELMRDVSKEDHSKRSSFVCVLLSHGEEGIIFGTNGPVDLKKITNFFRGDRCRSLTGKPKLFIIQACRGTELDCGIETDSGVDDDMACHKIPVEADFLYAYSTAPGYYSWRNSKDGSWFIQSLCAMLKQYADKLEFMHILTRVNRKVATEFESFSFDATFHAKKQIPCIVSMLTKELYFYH

[14] = target: T4, Sentrin-specific protease 7 (Homo sapiens, UniProt Q9BQF6); type: functional;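 note: Luminescence-based dose-response confirmation of ultra-high-throughput screening hits, measuring inhibition of SENP7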
T4 sequence (Q9BQF6 whole entry): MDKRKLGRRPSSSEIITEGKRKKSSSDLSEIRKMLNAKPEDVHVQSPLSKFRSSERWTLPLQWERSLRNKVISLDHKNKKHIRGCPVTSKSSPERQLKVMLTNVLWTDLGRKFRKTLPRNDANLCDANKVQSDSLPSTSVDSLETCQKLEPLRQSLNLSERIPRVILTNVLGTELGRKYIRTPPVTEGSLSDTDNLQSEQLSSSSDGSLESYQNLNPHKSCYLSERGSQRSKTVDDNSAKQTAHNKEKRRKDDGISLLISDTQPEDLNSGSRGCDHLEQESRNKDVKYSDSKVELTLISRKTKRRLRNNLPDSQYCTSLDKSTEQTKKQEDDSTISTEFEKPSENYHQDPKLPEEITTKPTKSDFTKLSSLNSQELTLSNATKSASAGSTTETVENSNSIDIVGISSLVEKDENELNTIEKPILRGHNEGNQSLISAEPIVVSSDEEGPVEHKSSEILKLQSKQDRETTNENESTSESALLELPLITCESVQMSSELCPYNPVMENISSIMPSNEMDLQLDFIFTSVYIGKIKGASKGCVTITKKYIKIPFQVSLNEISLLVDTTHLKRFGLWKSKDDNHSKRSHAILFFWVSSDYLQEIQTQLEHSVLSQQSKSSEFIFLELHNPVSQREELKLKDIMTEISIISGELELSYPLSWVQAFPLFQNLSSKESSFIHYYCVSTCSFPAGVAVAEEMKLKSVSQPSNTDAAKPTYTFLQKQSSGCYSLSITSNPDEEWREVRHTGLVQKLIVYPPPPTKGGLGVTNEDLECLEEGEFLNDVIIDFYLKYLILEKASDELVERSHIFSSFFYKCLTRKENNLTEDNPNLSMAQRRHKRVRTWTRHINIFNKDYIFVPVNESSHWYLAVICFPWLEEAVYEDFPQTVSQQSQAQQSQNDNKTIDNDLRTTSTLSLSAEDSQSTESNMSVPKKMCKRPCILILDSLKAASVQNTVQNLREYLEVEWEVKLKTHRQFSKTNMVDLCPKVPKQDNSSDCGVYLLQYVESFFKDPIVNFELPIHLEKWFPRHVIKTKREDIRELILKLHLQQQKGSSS

[15] = target: T5, Sentrin-specific protease 6 (Homo sapiens, UniProt Q9GZR1); type: functional;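 note: Luminescence-based dose-response confirmatory assay of SENP6 inhibition, following up an ultra-high-throughput screen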
T5 sequence (Q9GZR1 whole entry): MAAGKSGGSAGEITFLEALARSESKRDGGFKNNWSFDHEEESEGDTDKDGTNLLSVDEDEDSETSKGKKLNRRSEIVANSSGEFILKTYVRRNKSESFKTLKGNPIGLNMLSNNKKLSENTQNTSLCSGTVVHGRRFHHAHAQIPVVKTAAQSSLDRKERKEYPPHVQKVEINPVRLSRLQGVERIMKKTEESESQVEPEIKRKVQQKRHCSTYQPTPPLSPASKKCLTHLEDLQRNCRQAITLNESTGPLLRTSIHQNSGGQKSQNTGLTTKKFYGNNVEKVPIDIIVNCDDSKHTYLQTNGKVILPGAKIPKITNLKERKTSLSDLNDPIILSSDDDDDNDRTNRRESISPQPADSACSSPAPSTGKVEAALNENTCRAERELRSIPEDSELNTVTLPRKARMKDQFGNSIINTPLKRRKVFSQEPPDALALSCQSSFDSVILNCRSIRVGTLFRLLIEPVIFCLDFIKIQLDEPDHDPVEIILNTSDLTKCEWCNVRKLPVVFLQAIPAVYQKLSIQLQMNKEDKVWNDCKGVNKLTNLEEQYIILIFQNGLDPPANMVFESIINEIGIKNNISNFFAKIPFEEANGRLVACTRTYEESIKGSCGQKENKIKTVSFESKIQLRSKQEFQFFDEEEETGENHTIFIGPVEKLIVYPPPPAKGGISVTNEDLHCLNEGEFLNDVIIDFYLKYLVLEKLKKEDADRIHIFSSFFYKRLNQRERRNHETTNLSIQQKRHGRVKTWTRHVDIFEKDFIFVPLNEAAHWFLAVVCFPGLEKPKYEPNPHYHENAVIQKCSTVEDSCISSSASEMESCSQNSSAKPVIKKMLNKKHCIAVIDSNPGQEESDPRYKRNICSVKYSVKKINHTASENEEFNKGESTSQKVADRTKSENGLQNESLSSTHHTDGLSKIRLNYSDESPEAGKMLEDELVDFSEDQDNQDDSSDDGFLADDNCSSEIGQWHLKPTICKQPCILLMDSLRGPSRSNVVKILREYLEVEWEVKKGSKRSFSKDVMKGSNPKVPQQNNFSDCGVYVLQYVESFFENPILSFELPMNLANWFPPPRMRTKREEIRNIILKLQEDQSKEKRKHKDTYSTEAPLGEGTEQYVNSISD

[16] = target: T6, Sentrin-specific protease 8 (Homo sapiens, UniProt Q96LD8); type: functional;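 note: luminescence read-out of SENP8 inhibition, dose-response confirmation following an ultra-high-throughput screen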
T6 sequence (Q96LD8 whole entry): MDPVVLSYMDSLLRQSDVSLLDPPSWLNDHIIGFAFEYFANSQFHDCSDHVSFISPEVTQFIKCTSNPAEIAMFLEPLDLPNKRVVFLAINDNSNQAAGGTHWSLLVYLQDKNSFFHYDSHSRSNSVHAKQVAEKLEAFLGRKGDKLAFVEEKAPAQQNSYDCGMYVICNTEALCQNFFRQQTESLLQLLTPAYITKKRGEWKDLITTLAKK

[17] = toxicity toward HepG2 liver cells – cell-based, plate reader, cherry-pick, antagonist series, cytotoxicity control, dose response (AID 743416); type: functional
[18] = blockers of bursicon-stimulated LGR2 cAMP reporter – cell-based, HEK293, CRE-luciferase reporter, cherry pick, set 2, dose response (AID 743343); type: functional;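 note: transfected cells were stimulated with diluted bursicon conditioned medium after compound addition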
[19] = blockade of melanocortin 4 receptor signaling – cell-based, plate reader, cherry pick, counter-screen for LGR2 antagonist project, dose response (AID 743444); type: functional;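 note: transfected HEK 293 cells stimulated with alpha-MSH peptide; potency of inhibitors of the alpha-MSH evoked signal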
[20] = A549 cell cytotoxicity, dose response, cytotoxicity control, plate reader, cherry-pick, antagonist series (AID 743412); type: functional, cell-based
[21] = target: Luciferin 4-monooxygenase (Photinus pyralis, UniProt P08659); experiment: inhibition of purified Photinus pyralis luciferase – biochemical, luminescence, dose response (AID 1891)
[22] = Luminescence Cell-Based Dose Confirmation HTS to Identify Inhibitors of Platelet Dense Granule Release. [Related pubchem assays: 1663 (Primary HTS), 1678 (Summary of Project)]; type: functional
[23] = Trypanosoma cruzi growth suppression in host cells – NIH3T3 host cells, beta-gal luminescence, confirmation (AID 2044); type: functional, cell-based;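 note: intracellular parasites grown in NIH/3T3 mouse fibroblasts as host cells; luminescent beta-galactosidase reporter signal from transgenic T. cruzi replicating inside host cells; inhibitors lower the luminescence signal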
[24] = NIH3T3 cell viability loss – ATP luminescence, mouse fibroblasts, counter-screen, dose response (AID 2010); type: functional, cell-based;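 note: cells exposed to compound for about 90 hours before reading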

Sequence of Kallikrein-7 (P49862 whole entry): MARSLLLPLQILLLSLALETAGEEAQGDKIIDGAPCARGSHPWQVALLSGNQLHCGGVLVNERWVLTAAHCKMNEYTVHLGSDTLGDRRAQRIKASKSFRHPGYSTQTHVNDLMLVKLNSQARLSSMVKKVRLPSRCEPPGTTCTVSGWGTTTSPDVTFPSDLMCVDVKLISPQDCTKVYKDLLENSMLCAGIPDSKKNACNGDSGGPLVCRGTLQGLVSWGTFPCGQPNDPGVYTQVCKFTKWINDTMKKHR
Sequence of Genome polyprotein (P29990 2492-3391 limits assumed): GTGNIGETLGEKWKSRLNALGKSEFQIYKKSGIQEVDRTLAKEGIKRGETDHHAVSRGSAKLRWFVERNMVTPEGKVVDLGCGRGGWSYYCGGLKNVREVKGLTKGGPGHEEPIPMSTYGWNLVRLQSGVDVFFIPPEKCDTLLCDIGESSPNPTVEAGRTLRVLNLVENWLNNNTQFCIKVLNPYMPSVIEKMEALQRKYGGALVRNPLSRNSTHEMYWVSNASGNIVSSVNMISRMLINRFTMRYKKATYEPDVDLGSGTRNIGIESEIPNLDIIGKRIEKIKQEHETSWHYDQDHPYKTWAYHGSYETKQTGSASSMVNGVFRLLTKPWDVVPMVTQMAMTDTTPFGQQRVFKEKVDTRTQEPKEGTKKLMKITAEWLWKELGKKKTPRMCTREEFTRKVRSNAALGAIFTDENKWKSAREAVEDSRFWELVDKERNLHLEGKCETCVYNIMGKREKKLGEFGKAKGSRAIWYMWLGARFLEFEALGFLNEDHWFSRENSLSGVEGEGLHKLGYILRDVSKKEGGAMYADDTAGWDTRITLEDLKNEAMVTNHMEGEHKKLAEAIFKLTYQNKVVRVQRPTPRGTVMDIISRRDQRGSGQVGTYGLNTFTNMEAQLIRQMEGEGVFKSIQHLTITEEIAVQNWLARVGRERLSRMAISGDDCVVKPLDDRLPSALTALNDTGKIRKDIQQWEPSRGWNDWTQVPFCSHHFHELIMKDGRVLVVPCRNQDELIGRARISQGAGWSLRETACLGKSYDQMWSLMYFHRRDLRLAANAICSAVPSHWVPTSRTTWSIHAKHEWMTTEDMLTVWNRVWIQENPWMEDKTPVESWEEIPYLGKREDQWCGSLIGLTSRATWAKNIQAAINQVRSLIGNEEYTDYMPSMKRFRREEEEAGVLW
Sequence of Induced myeloid leukemia cell differentiation protein Mcl-1 (Q07820 whole entry): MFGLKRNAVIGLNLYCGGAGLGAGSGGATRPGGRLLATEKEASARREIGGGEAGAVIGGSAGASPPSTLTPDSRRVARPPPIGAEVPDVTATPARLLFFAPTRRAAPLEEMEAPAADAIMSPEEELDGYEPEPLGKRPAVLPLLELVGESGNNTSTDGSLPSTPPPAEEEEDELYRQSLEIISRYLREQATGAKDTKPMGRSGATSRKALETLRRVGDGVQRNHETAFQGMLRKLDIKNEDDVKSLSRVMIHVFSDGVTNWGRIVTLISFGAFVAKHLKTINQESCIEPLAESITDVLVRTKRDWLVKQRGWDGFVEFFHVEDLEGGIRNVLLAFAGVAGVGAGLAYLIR
Sequence of Luciferin 4-monooxygenase (P08659 whole entry): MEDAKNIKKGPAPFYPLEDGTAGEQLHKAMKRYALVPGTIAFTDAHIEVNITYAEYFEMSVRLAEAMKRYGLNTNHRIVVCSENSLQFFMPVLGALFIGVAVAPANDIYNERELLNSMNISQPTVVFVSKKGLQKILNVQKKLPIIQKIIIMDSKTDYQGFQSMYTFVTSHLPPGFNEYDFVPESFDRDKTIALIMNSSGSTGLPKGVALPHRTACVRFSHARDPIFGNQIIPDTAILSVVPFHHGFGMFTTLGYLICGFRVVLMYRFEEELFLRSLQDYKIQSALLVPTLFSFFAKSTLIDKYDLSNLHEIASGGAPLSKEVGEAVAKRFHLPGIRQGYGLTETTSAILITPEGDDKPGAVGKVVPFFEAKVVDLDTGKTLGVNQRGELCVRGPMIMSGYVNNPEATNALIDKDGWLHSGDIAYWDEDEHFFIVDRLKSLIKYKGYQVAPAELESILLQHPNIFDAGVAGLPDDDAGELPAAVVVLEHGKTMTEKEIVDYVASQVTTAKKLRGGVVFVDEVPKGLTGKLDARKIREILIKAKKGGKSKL

CCc1cc(N2CCOCC2)cc2c1[nH]c1ccccc12
IC50 [1]: > 50 µM (not active)

COC(=O)COc1cccc(NC(=O)COc2ccccc2)c1
CC50 [2]: > 40 µM (active)
IC50 [3]: 1.65 µM (active)

O=C(Nc1ccc2c(c1)C(=O)NC2=O)c1ccc(S(=O)(=O)N2CCCC2)cc1
EC50 [4]: 8.55 µM (active)

O=C(c1ccc([N+](=O)[O-])s1)N1CCN(c2cccc(Cl)c2)CC1
EC50 [5]: > 195 µM (not active)
CC50 [2]: 35.6 µM (active)
IC50 [3]: 1.11 µM (active)
AC50 [6]: 7.83 µM (active)

COCCN(CCOC)c1cc(C)c(C#N)c2nc3ccccc3n12
EC50 [4]: 11.2 µM (inactive)

CCc1cccc(OCCCn2ccnc2)c1
CC50 [2]: > 40 µM (active)

Cc1cccc(-n2c(SCC(=O)N3CCCC3)nc3nnc(C)c-3c2N)c1
EC50 [4]: 13.3 µM (inactive)

O=C(NC1CCCCCC1)c1cc2c(=O)n3ccccc3nc2s1
EC50 [4]: > 69.5 µM (inactive)

O=C(Nc1ccc2nc3ccccc3nc2c1)c1ccccc1
IC50 [7]: > 54 µM (active)
EC50 [4]: > 69.5 µM (inactive)

CN1C(=O)NC(=O)/C(=C/c2ccc([N+](=O)[O-])s2)C1=O
EC50 [8]: 11.2 µM (active)
EC50 [9]: > 150 µM (not active)
EC50 [10]: > 150 µM (not active)
EC50 [11]: > 150 µM (not active)
CC50 [2]: 33.8 µM (active)
IC50 [3]: 23.2 µM (active)
IC50 [12]: 17.4 µM (active)

COCCn1c(C)cc(C(=O)CSc2nc3ccccc3s2)c1C
IC50 [13]: 26.4 µM (active)
IC50 [14]: 8.92 µM (active)
IC50 [15]: 27.4 µM (active)
IC50 [16]: 83.7 µM (active)
AC50 [17]: 41.8 µM (active)
AC50 [18]: 3.81 µM (active)
AC50 [19]: 6.46 µM (active)

COC(=O)C1=CNC=C(C(=O)OC)C1c1ccc(C(=O)OC)cc1
EC50 [4]: > 69.5 µM (inactive)

CC(=O)c1ccc(Nc2nc(-c3sc(C)nc3C)cs2)cc1
AC50 [20]: 2.08 µM (active)
AC50 [17]: 2.87 µM (active)
AC50 [18]: 21.8 µM (active)
AC50 [19]: 34 µM (active)

CCCCN1C(=O)/C(=N\c2cccc3cnccc23)c2ccccc21
EC50 [21]: > 112 µM (not active)
EC50 [22]: > 112 µM (not active)
IC50 [1]: > 50 µM (not active)

CCC/C(=N\NC(=O)c1ccco1)c1ccc(Cl)s1
CC50 [2]: > 40 µM (active)
IC50 [3]: 13.9 µM (active)

O=C(O)c1ccc(/C=N/NC(=O)c2cc(-c3cccs3)nc3ccccc23)cc1
EC50 [4]: 49.6 µM (inactive)

CC(C)(C)C1=CC(=O)C(=O)C(C(C)(C)C)=C1
EC50 [23]: 0.62 µM (active)
EC50 [24]: 7.34 µM (active)
IC50 [1]: 9.84 µM (active)

O=C(Nc1nc2ccccc2[nH]1)c1ccc(Cl)cc1
AC50 [20]: 29.1 µM (active)
AC50 [17]: 29.5 µM (active)
AC50 [18]: 10.1 µM (active)
AC50 [19]: 6.33 µM (active)
